Experimental findings from ChEMBL document CHEMBL3507680, “University of Dundee, Gates Library screen for HepG2 cell viability” are described below.

The data set is described as follows: Human HepG2 cell viability assay in 384 well format. In kind it is toxicity, cell-based. Also noted: dose 125 nL, time 70.5 hour; concentration not given beside the values. The conditions noted are these: HepG2 cells, read-out: Inhibition.
As for `C[C@@]1(O)CCN(C2CCOCC2)C[C@H]1n1ccc(=O)[nH]c1=O`, the cytotoxicity at 70.5 h was -3.9%.
Turning to `COCC1CN(C(=O)c2ccnnc2)Cc2ncnn2C1` (centres undefined), the cytotoxicity at 70.5 h was -3.33%.
As for `CN(C)S(=O)(=O)N1CCCC1c1cccc(-n2ccnc2)n1` (centres undefined), the figure is -4.96%; as for `CCCc1nc(C(C)(C)NC(=O)C2CC(=O)N(CC3CC3)C2)no1` (centres undefined), -6.06%.
As for `CC(C)Oc1cc(N2C[C@@H](C)O[C@@H](C)C2)nc(N)n1`, the figure is -14.6%; as for `CCC(=O)NC(c1ccc(C)cc1)c1cccc(S(C)(=O)=O)c1` (centres undefined), -11.9%.
The figure for `CC(C)SCCNC(=O)c1cccc2ccnn12` is -9.35%; for `COc1ncccc1C(=O)NCC1Cc2ccccc2O1` (centres undefined) it is -6.43%.
For `Cc1cc(CC(=O)N(CC2CN(C)CCO2)c2nccs2)no1` (centres undefined), the cytotoxicity at 70.5 h was -10.3%.
With `Cc1occc1C(=O)N1Cc2nccn2CC(CN(C)C)C1` (centres undefined), the cytotoxicity at 70.5 h was -8.13%.
Consider `COCc1cc(CN(C)C(=O)c2c[nH]nc2-c2cccc(F)c2)n[nH]1`, for which the cytotoxicity at 70.5 h is 19.4%.
The figure for `Cc1cccnc1C(=O)N1CCCCC1c1[nH]ncc1S(C)(=O)=O` (centres undefined) is 1.39%.
As for `O=C(N1CCCC1)N1CCc2c(CNc3ncccn3)cncc2C1`, the figure is -1.33%; as for `CCc1nc(CC)n(CC(=O)N(C)Cc2ccc(F)cc2)n1`, -4.65%; as for `COC(=O)CCNC(=O)c1nnn(-c2ccc(F)cc2)c1C1CC1`, -10.2%.
For the compound `Cc1ccc(CN(C)C(=O)CN2CCCCC2Cn2cncn2)o1` (centres undefined), the cytotoxicity at 70.5 h amounted to 17.9%.
The figure for `O=C1NC(c2ccccc2)=N[C@@]12CC[C@@H]1CN(S(=O)(=O)C3CC3)C[C@@H]12` is 2.16%; for `CC(C)[C@H]1CN(Cc2c[nH]nn2)C[C@@H]1NC(=O)C1CCOCC1` it is -0.972%; for `COc1cccc(NC(=O)CNc2ccc(C(=O)N(C)C)c(Cl)c2)c1` it is -4.79%.
As for `CCOc1ccccc1NC(=O)Nc1cc(N2CCCC2)ncn1`, the figure is 1.9%; as for `CCC(=O)N1CCCC(C(=O)N2CCN(c3cnn(C)c(=O)c3)CC2)C1` (centres undefined), -12.7%; as for `Cc1noc(Cl)c1CC(=O)N1CCCC(n2cccn2)C1` (centres undefined), -4.55%.
With `CC(O)CN1CCN(C(=O)c2cccc(CC#N)c2)CC1` (centres undefined), the cytotoxicity at 70.5 h came out at 12.7%.
Regarding `Cc1noc([C@@]23CCO[C@@H]2CCN(CC2CCOCC2)C3)n1`, the cytotoxicity at 70.5 h is -5.71%.
The figure for `COCCCN(Cc1ccccn1)S(=O)(=O)N(C)C` is 26.3%; for `CS(=O)(=O)NCC(=O)NC1CCCN(c2ccccn2)C1` (centres undefined) it is -9.78%; for `O=C1CC(C(=O)NCCN2CCOC2=O)c2cc(F)ccc2N1` (centres undefined) it is 2.37%.
As for `CCN1c2ccc(-c3cncn3CCCn3ccnc3C)cc2CC1C` (centres undefined), the figure is -0.494%; as for `CC[C@H](Nc1nc(C(C)C)nc2c1cnn2C)c1ccccc1`, -8.04%.
As to `Cc1ccc2[nH]c(CN(C)Cc3ccccc3C(=O)O)nc2c1`, the cytotoxicity at 70.5 h was -7.29%.
Consider `Cc1ccc(NC(=O)CNc2ccn(CC(N)=O)n2)c(Cl)c1`, for which the cytotoxicity at 70.5 h was -7.52%.
Consider `Cc1ccnc(NCCSc2nccn2C)n1`, for which the cytotoxicity at 70.5 h is -5.33%.
The figure for `CC(=O)NCC1CCN(C(=O)c2c(C)[nH]c3ccc(Cl)cc23)CC1` is -0.185%; for `O=C(Nc1ccccc1)C1=NOC2(CCCN(C(=O)C3CCCC3)C2)C1` (centres undefined) it is -1.79%; for `COc1c(CNCC(O)COc2ccc3c(c2)OCO3)c(C)nn1C` (centres undefined) it is 14.9%.
As for `CN(Cc1ccc(-n2cccn2)cc1)Cc1ncc[nH]1`, the figure is -9.75%; as for `O=C1CCCN1CCc1noc(-c2ccc(Cl)cc2)n1`, -10.6%.
Take `Cc1cc(C)n(CC2CCCCN2CC(=O)Nc2c(C)n[nH]c2C)n1` (centres undefined): the cytotoxicity at 70.5 h came out at 2.06%.
The figure for `Cc1ccc(F)c(OC2(C(=O)O)CCN(C(=O)c3ccccc3)CC2)c1` is -6.1%; for `NC1CCN(C2CCN(c3ccc(-c4ccco4)cc3)CC2)CC1` it is -12%; for `COc1ccc(OC)c(C2CCN(C(=O)C3CCS(=O)(=O)CC3)C2)c1` (centres undefined) it is -7.16%.
Consider `CN(C)[C@@H]1CCN(c2ncc(F)cn2)[C@H]1Cc1ccncc1`, for which the cytotoxicity at 70.5 h is -5.64%.
The figure for `CC(C)(C)CNC1(Cc2cc(C(C)(C)O)on2)COC1` is -7.44%; for `Cc1nn(C)cc1CN1CCCCCC1c1ccccc1Cl` (centres undefined) it is 17.7%; for `CNc1nc2c(s1)C(=O)CN(C(=O)[C@@H](N)Cc1cccc(OC)c1)C2` it is -5.78%.
With `Cc1nn(C)c(Cl)c1C1CCCN1CC(=O)Nc1cccnc1` (centres undefined), the cytotoxicity at 70.5 h was -6.29%.
As for `Cc1cc(C)n(CC2CN(CC(=O)NCc3cccs3)CCO2)n1` (centres undefined), the figure is 13.4%.
Take `CCN(CC)C(=O)c1ccc(Cl)c(NC(=O)c2cc(C(C)C)on2)c1`: the cytotoxicity at 70.5 h is -12.4%.
Take `O=C(NCCCn1cncn1)N1CCC(N2CCCCC2)CC1`: the cytotoxicity at 70.5 h was -2.83%.
The figure for `CCn1ccnc1CN1CCN(c2ncnc3ccsc23)CC1` is -3.44%; for `Cn1cnc2c1CCN(CCCS(=O)(=O)c1ccccc1)C2` it is 24.3%; for `Cc1ccc(N2CCC(c3[nH]ncc3Cc3ccccc3)CC2)nn1` it is -10%.
Turning to `CCCN1CCCn2nc(CNC(=O)CN(C)C3CCCC3)cc2C1`, the cytotoxicity at 70.5 h is -8%.
In the case of `CSc1ccsc1C(=O)NS(=O)(=O)c1cnn(C)c1`, the cytotoxicity at 70.5 h is -15.6%.
As for `CN(C)C(=O)c1cccnc1-c1ccc2c(c1)OCO2`, the figure is -11.3%; as for `COc1cccc(CNC(=O)Nc2ccc3[nH]nnc3c2)c1OC`, -9.41%; as for `CC(C)CN1CC(c2nc(-c3ccc(F)cc3)c[nH]2)CC1=O` (centres undefined), -7.74%.
As for `Cc1nc(C)n(C2CCCN(C(=O)c3ccc4nccn4c3)C2)n1` (centres undefined), the figure is 22.7%; as for `Fc1cccc(-c2nc(CN3CCOC(Cn4cccn4)C3)co2)c1` (centres undefined), -11.5%.
As for `CCCc1ccc(OCCNCc2ccco2)c(OC)c1`, the figure is -1.62%.
On to `CCc1nc(CN2CCCN(C(=O)c3ccccc3)CC2)cs1`, for which the cytotoxicity at 70.5 h was -1.48%.
The figure for `Cc1oc(-c2ccco2)nc1CC(=O)N1CCC(C(O)C(F)(F)F)CC1` (centres undefined) is -18.3%; for `COc1ccccc1C(N)CC(C)C` (centres undefined) it is -8.84%; for `Cc1ccsc1C(=O)N1CC2CC1(C(=O)NCc1ccco1)C2` it is 13.9%.
The figure for `COC(=O)CNC(=O)CCc1cc(Cl)cs1` is 6.93%; for `Cc1cc(N2CCC3(CCCN(CCO)C3=O)C2)nc(C)c1C#N` (centres undefined) it is -18.8%.
As for `O=C(COc1ccccc1F)N1CCCCC1c1ccn2ccnc2n1` (centres undefined), the figure is -11.7%.
As for `CC(=O)NCCNC(=O)C1(N2CCCCC2)Cc2ccccc2C1`, the cytotoxicity at 70.5 h was -7.44%.
Regarding `Cn1cc(N2C(=O)CC[C@@H]3[C@H]2CCN3CC2CCOCC2)cn1`, the cytotoxicity at 70.5 h was -14.3%.
Turning to `Cc1cc(NC(C)c2n[nH]c(C)n2)n2nc(C)c(C)c2n1` (centres undefined), the cytotoxicity at 70.5 h came to 20%.
As for `C=C(C)CN(CC)C(=O)c1cc(C)ccc1NS(C)(=O)=O`, the figure is 3.16%.
The figure for `CC(NC(=O)N1CCc2ccccc21)c1nncn1C` (centres undefined) is -12.2%.
As for `Cc1nc(C)c2c(n1)CCN(C(=O)C1(C#N)CC1)CC2`, the figure is -1.89%; as for `Cc1cc2c(c(-c3c[nH]c(C)n3)c1)OC(CN)C2` (centres undefined), 2.12%.
For `O=C(c1cc(Cn2ccc3ccccc32)[nH]n1)N1CCCCC1CO` (centres undefined), the cytotoxicity at 70.5 h is 10.4%.
As for `COc1cc(C(C)=O)ccc1SCC(=O)Nc1cccc(C)n1`, the figure is -19.2%; as for `O=C(NCc1cccc(Cl)c1)C1=NOC2(CCNC2)C1` (centres undefined), -6.34%; as for `CSCC[C@H](NC(C)=O)c1nc(Cc2ccccc2)n[nH]1`, 6.58%.
In the case of `O=C(NCCc1ccncc1)c1cccc(S(=O)(=O)NC2CCOC2)c1` (centres undefined), the cytotoxicity at 70.5 h stood at 5.63%.
In the case of `CCc1noc(C(C)N2CCN(c3ncnc4sccc34)CC2)n1` (centres undefined), the cytotoxicity at 70.5 h is 1.35%.
For `COc1ccccc1C1CC(=O)Nc2nc(N3CCCCC3)sc21` (centres undefined), the cytotoxicity at 70.5 h is -18.8%.
The figure for `Cc1cc(NC(C)Cn2cccn2)n2nccc2n1` (centres undefined) is -12.5%; for `CC(=O)N1CC(=O)N(c2cccnc2)CC12CCN(Cc1nccs1)C2` (centres undefined) it is -0.821%; for `O=S(=O)(C1CC1)N1CCOCC2(CN(c3ncccn3)CCO2)C1` (centres undefined) it is -9.2%.
As to `CN(Cc1cccc(C#N)c1)S(=O)(=O)N1CCOCC1`, the cytotoxicity at 70.5 h was -9.82%.
The figure for `Cc1ccc(SC2CCCC2)c(C(=O)NCc2n[nH]c(=O)[nH]2)c1` is -11.2%.
The figure for `CC(C)(C)N1CC(C(=O)NCc2noc(Cc3ccccc3)n2)CC1=O` (centres undefined) is 21.2%; for `O=C(NCc1nc[nH]n1)c1cc(COc2cccc(F)c2)[nH]n1` it is 11.1%; for `Cc1cnn(CC2CCCN2C(=O)c2cn(C)c3ccccc23)c1` (centres undefined) it is -9.04%.
As for `COc1cc(F)c(C(=O)NCc2cc(C)on2)c(F)c1`, the figure is -6.54%; as for `CCCC(=O)N1CCC(c2nc(O)c3c(n2)CCN(C2CCCC2)C3)C1` (centres undefined), -0.72%.
Regarding `Cc1ncsc1CCN(C)C(=O)c1ccc(CN2CCCCC2)cc1`, the cytotoxicity at 70.5 h turned out to be 0.585%.
Take `CN(C(=O)c1ccccc1N(C)S(C)(=O)=O)c1ccc(C(C)(C)C)cc1`: the cytotoxicity at 70.5 h is 5.15%.
The figure for `CNC(=O)C(CC(C)C)NC(=O)c1cccc(-c2nc(C)cs2)c1` (centres undefined) is 15.4%; for `Cc1cnn(C2CN(Cc3nc(-c4ccccn4)no3)C2)c1` it is 12.3%.
As for `CN(C)Cc1nc(-n2cnc(C(=O)NC3CCCC3)c2)n2ccccc12`, the figure is -3.17%.
As for `COc1ccc(CN2CCC(c3nnc(-c4scnc4C)o3)CC2)cc1`, the figure is -3.83%; as for `Cc1nc2c(c(N[C@H](C(N)=O)C(C)C)n1)Cc1ccccc1OC2`, -11.2%.
As to `Fc1ccc(N2CCCN(c3ccc(Cn4ccnc4)cn3)CC2)cc1`, the cytotoxicity at 70.5 h is 2.18%.
